The results in this text go back to US20240209028A1, “CNP COMPOUNDS” (priority 2022, published 2024).

Read-outs that look alike come from different tables or passages of the source. Starred links: 1 amine or outer side, 2 acyl side, 3 side chain; linkers in the order of their positions; H or OH if unused. Positions of bridges follow the written chain, without caps; N, C: chain ends. Residues, ends and D or L forms follow the SMILES beside them. *: point of attachment. C18 diacid = O=C(O)CCCCCCCCCCCCCCCCC(=O)*; γGlu = O=C(O)[C@H](CCC(=O)[*:2])N[*:1]; X1 = O=C(CCCCCCCCCCCCCCCCc1nnn[nH]1)*; AEEA = NCCOCCOCC(=O)O

Data set [1] is described as follows: High-Molecular-Weight-Protein (HMWP) formation by SEC-UPLC. It is filed as physicochemical. The settings on record: increase over two weeks at 37° C., pH 6.5. As to the method: In order to assess the propensity of CNP compounds to form covalent dimers or oligomers when formulated the High-Molecular-Weight-Protein content of CNP compound formulations at pH 4.0 and 6.5 were determined.
Procedure: The relative amount of covalent HMWP was assessed using SEC-UPLC. SEC-UPLC was conducted using a Waters UPLC Protein BEH SEC column, 125A, 4.6×150 mm, 1.7 μm, with isocratic elution (0.3 M NaCl, 10 mM NaH2PO4 and 5 mM H3PO4, 50% (v/v) isopropanol, pH 2.4) with a flow rate of 0.3 mL/min, a column temperature at 50° C. with UV-detection at 215 nm. The total area of peaks eluting prior to the monomeric main peak was termed HMWP and given on a percentage scale relative to the total peptide peak area.
Results: HMWP Formation Following 2-Weeks Quiescent Incubation at 37° C.: Samples at pH 4.0 were prepared as described in Example 5 and the amount of HMWP was determined as described above. Samples were incubated for two weeks at 37° C. and the amount of HMWP was determined again. The increase in HMWP over two weeks incubation at 37° C. are reported in Table 10 (in case the incubation period deviated from two weeks the increase in HMWP was normalized to two weeks assuming a constant formation rate).
Samples at pH 6.5 were prepared as described in Example 5 and the amount of HMWP was determined as described above. Samples were incubated for two weeks at 37° C. and the amount of HMWP was determined again. The increase in HMWP over two weeks incubation at 37° C. are reported in Table 11 (in case the incubation period deviated from two weeks the increase in HMWP was normalized to two weeks assuming a constant formation rate).
On the technique in general: In gel filtration, larger molecules generally elute earlier.

A short description of data set [2]: PK of CNP compounds after i.v. and s.c. administration to rats. The settings on record: male, Sprague Dawley, in vivo, rat; for clearance: read-out: Cl (L/hr/kg), i.v. administration (converted). In a few lines:
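Male Sprague Dawley rats (n=4-6) were dosed at 300 nmol/kg s.c. or 100 nmol/kg i.v., formulated at pH 7.4 or 4.0, and sampled up to 72 h. Plasma levels were measured by TF-LC-MS against calibrators from 0.5 to 2000 nM. Non-compartmental PK used dose-normalized AUC for bioavailability, with values given as means.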

Where [3] appears, read: iv, i.v., about 100 nmol/kg, read-out: T½ (hr), i.v. administration (converted).

For `CC[C@H](C)[C@@H]1NC(=O)[C@H](CCCNC(=N)N)NC(=O)[C@H](CC(=O)O)NC(=O)[C@H](CC(C)C)NC(=O)[C@@H]2CCCN2C(=O)[C@H](CC(C)C)NC(=O)CNC(=O)[C@H](Cc2ccccc2)NC(=O)[C@@H](NC(=O)CNC(=O)[C@H](CO)NC(=O)[C@H](CO)NC(=O)[C@H](CC(C)C)NC(=O)CNC(=O)[C@@H](NC(=O)[C@H](Cc2c[nH]cn2)NC(=O)[C@H](CCC(N)=O)NC(=O)[C@H](C)NC(=O)CNC(=O)[C@H](Cc2c[nH]cn2)NC(=O)[C@H](Cc2ccc(O)cc2)NC(=O)COCCOCCNC(=O)COCCOCCNC(=O)CC[C@H](NC(=O)CCCCCCCCCCCCCCCCC(=O)O)C(=O)O)[C@@H](C)O)CSSC[C@@H](C(=O)O)NC(=O)CNC(=O)[C@H](CC(C)C)NC(=O)CNC(=O)[C@H](CO)NC(=O)[C@H](CC(C)C)NC(=O)[C@H](CO)NC(=O)CNC1=O` [compound 1304] ({C18 diacid-γGlu-AEEA-AEEA}-YHGAQHTGLSSGCFGLPLDRIGSLSGLGC-OH; disulfide 13-29), the “2-Week HMWP formation at pH 6.5 (%), % relative to total peak area” value in data set [1] is 1.55%.

Consider `CC[C@H](C)[C@@H]1NC(=O)[C@H](CCCNC(=N)N)NC(=O)[C@H](CC(=O)O)NC(=O)[C@H](CC(C)C)NC(=O)[C@@H]2CCCN2C(=O)[C@H](CC(C)C)NC(=O)CNC(=O)[C@H](Cc2ccccc2)NC(=O)[C@@H](NC(=O)CNC(=O)[C@H](CO)NC(=O)[C@H](CO)NC(=O)[C@H](CC(C)C)NC(=O)CNC(=O)[C@H](CCCCN)NC(=O)[C@H](CCCCN)NC(=O)[C@H](CCC(N)=O)NC(=O)[C@H](C)NC(=O)CNC(=O)[C@H](Cc2c[nH]cn2)NC(=O)[C@H](CCC(=O)O)NC(=O)COCCOCCNC(=O)COCCOCCNC(=O)CC[C@H](NC(=O)CCCCCCCCCCCCCCCCC(=O)O)C(=O)O)CSSC[C@@H](C(=O)O)NC(=O)CNC(=O)[C@H](CC(C)C)NC(=O)CNC(=O)[C@H](CO)NC(=O)[C@H](CC(C)C)NC(=O)[C@H](CO)NC(=O)CNC1=O` [compound 1310] ({C18 diacid-γGlu-AEEA-AEEA}-EHGAQKKGLSSGCFGLPLDRIGSLSGLGC-OH; disulfide 13-29), for which the “2-Week HMWP formation at pH 6.5 (%), % relative to total peak area” value in data set [1] stood at 0.87%.

Take `CC[C@H](C)[C@@H]1NC(=O)[C@H](CCCNC(=N)N)NC(=O)[C@H](CC(=O)O)NC(=O)[C@H](CC(C)C)NC(=O)[C@@H]2CCCN2C(=O)[C@H](CC(C)C)NC(=O)CNC(=O)[C@H](Cc2ccccc2)NC(=O)[C@@H](NC(=O)CNC(=O)[C@H](CCC(N)=O)NC(=O)[C@H](CO)NC(=O)[C@H](CC(C)C)NC(=O)CNC(=O)[C@H](CCCCN)NC(=O)[C@H](CCCCN)NC(=O)[C@H](CCC(N)=O)NC(=O)[C@H](C)NC(=O)CNC(=O)[C@H](CCCCN)NC(=O)[C@H](Cc2ccc(O)cc2)NC(=O)[C@H](CCCCN)NC(=O)[C@H](Cc2c[nH]cn2)NC(=O)[C@H](C)NC(=O)[C@H](CCC(N)=O)NC(=O)[C@@H]2CCCN2C(=O)[C@H](Cc2c[nH]cn2)NC(=O)[C@H](CCC(=O)O)NC(=O)[C@H](CCC(N)=O)NC(=O)COCCOCCNC(=O)COCCOCCNC(=O)CC[C@H](NC(=O)CC[C@H](NC(=O)CC[C@H](NC(=O)CCCCCCCCCCCCCCCCC(=O)O)C(=O)O)C(=O)O)C(=O)O)CSSC[C@@H](C(=O)O)NC(=O)CNC(=O)[C@H](CC(C)C)NC(=O)CNC(=O)[C@H](CO)NC(=O)[C@H](CC(C)C)NC(=O)[C@H](CO)NC(=O)CNC1=O` [compound 1382] ({C18 diacid-γGlu-γGlu-γGlu-AEEA-AEEA}-QEHPQAHKYKGAQKKGLSQGCFGLPLDRIGSLSGLGC-OH; disulfide 21-37): in data set [1], the “2-Week HMWP formation at pH 6.5 (%), % relative to total peak area” value amounted to 0%.

Take `CC[C@H](C)[C@@H]1NC(=O)[C@H](CCCNC(=N)N)NC(=O)[C@H](CC(=O)O)NC(=O)[C@H](CC(C)C)NC(=O)[C@@H]2CCCN2C(=O)[C@H](CC(C)C)NC(=O)CNC(=O)[C@H](Cc2ccccc2)NC(=O)[C@@H](NC(=O)CNC(=O)[C@H](CCC(N)=O)NC(=O)[C@H](CO)NC(=O)[C@H](CC(C)C)NC(=O)CNC(=O)[C@H](CCCCN)NC(=O)[C@H](CCCCN)NC(=O)[C@H](CCC(N)=O)NC(=O)[C@H](C)NC(=O)CNC(=O)[C@H](CCCCN)NC(=O)[C@H](Cc2ccc(O)cc2)NC(=O)[C@H](CCCCN)NC(=O)[C@H](CCCNC(=N)N)NC(=O)[C@H](C)NC(=O)[C@H](CCC(N)=O)NC(=O)[C@@H]2CCCN2C(=O)[C@H](Cc2c[nH]cn2)NC(=O)[C@H](CCC(=O)O)NC(=O)[C@H](CCC(N)=O)NC(=O)COCCOCCNC(=O)COCCOCCNC(=O)CC[C@H](NC(=O)CC[C@H](NC(=O)CC[C@H](NC(=O)CC[C@H](NC(=O)CC[C@H](NC(=O)CC[C@H](NC(=O)CCCCCCCCCCCCCCCCC(=O)O)C(=O)O)C(=O)O)C(=O)O)C(=O)O)C(=O)O)C(=O)O)CSSC[C@@H](C(=O)O)NC(=O)CNC(=O)[C@H](CC(C)C)NC(=O)CNC(=O)[C@H](CO)NC(=O)[C@H](CC(C)C)NC(=O)[C@H](CO)NC(=O)CNC1=O` [compound 1402] ({C18 diacid-γGlu-γGlu-γGlu-γGlu-γGlu-γGlu-AEEA-AEEA}-QEHPQARKYKGAQKKGLSQGCFGLPLDRIGSLSGLGC-OH; disulfide 21-37): in data set [1], the “2-Week HMWP formation at pH 6.5 (%), % relative to total peak area” value was 2.19%.

As to `CC[C@H](C)[C@@H]1NC(=O)[C@H](CCCNC(=N)N)NC(=O)[C@H](CC(=O)O)NC(=O)[C@H](CC(C)C)NC(=O)[C@@H]2CCCN2C(=O)[C@H](CC(C)C)NC(=O)CNC(=O)[C@H](Cc2ccccc2)NC(=O)[C@@H](NC(=O)CNC(=O)[C@H](CCCCN)NC(=O)[C@H](CO)NC(=O)[C@@H](NC(=O)CNC(=O)[C@@H](NC(=O)[C@H](Cc2c[nH]cn2)NC(=O)[C@H](CCC(N)=O)NC(=O)[C@H](C)NC(=O)CNC(=O)[C@H](Cc2c[nH]cn2)NC(=O)[C@H](Cc2ccc(O)cc2)NC(=O)[C@H](CCCCN)NC(=O)[C@H](CCCNC(=N)N)NC(=O)[C@H](C)NC(=O)COCCOCCNC(=O)COCCOCCNC(=O)CC[C@H](NC(=O)CC[C@H](NC(=O)CC[C@H](NC(=O)CCCCCCCCCCCCCCCCC(=O)O)C(=O)O)C(=O)O)C(=O)O)[C@@H](C)O)C(C)C)CSSC[C@@H](C(=O)O)NC(=O)CNC(=O)[C@H](CC(C)C)NC(=O)CNC(=O)[C@H](CO)NC(=O)[C@H](CC(C)C)NC(=O)[C@H](CO)NC(=O)CNC1=O` [compound 1420] ({C18 diacid-γGlu-γGlu-γGlu-AEEA-AEEA}-ARKYHGAQHTGVSKGCFGLPLDRIGSLSGLGC-OH; disulfide 16-32), the clearance in data set [2] (iv, i.v., about 100 nmol/kg) is 0.00764 L/h/kg. The half-life in data set [2] (setting [3]) was 8.34 h; in data set [2] (sc, s.c., about 300 nmol/kg, read-out: T½ (hr), s.c. administration (converted)), 9.47 h. In data set [2] (sc, s.c. bioavailability, about 300 nmol/kg, read-out: F (%), s.c. administration), the bioavailability is 49.7%.

`CC[C@H](C)[C@@H]1NC(=O)[C@H](CCCNC(=N)N)NC(=O)[C@H](CC(=O)O)NC(=O)[C@H](CC(C)C)NC(=O)[C@@H]2CCCN2C(=O)[C@H](CC(C)C)NC(=O)CNC(=O)[C@H](Cc2ccccc2)NC(=O)[C@@H](NC(=O)CNC(=O)[C@H](CCC(N)=O)NC(=O)[C@H](CO)NC(=O)[C@H](CC(C)C)NC(=O)CNC(=O)[C@H](CO)NC(=O)[C@H](CCCCN)NC(=O)[C@H](CCC(N)=O)NC(=O)[C@H](C)NC(=O)CNC(=O)[C@H](Cc2c[nH]cn2)NC(=O)[C@H](Cc2ccc(O)cc2)NC(=O)[C@H](CCCCN)NC(=O)[C@H](CCCNC(=N)N)NC(=O)[C@H](C)NC(=O)COCCOCCNC(=O)COCCOCCNC(=O)CC[C@H](NC(=O)CC[C@H](NC(=O)CCCCCCCCCCCCCCCCc2nnn[nH]2)C(=O)O)C(=O)O)CSSC[C@@H](C(=O)O)NC(=O)CNC(=O)[C@H](CC(C)C)NC(=O)CNC(=O)[C@H](CO)NC(=O)[C@H](CC(C)C)NC(=O)[C@H](CO)NC(=O)CNC1=O` [compound 1426] ({X1-γGlu-γGlu-AEEA-AEEA}-ARKYHGAQKSGLSQGCFGLPLDRIGSLSGLGC-OH; disulfide 16-32): the clearance in data set [2] (iv, i.v., about 100 nmol/kg) was 0.00348 L/h/kg. Also, in data set [2] (setting [3]), the half-life was 9.96 h.
